This note sets out measurements from PMC4279228 (Molecular Biology of the Cell, 2015).

The test deals with LFA-1 (CD11a/CD18, αLβ2 integrin) (Homo sapiens, UniProt P05107+P20701). Briefly: Kd of unlabelled compound with XVA-FITC probe, flow cytometry on cells. The format is cell-based. In general terms: A flow cytometer gives signals particle by particle.
Sequence of LFA-1 (CD11a/CD18, αLβ2 integrin) (P20701 26-1170): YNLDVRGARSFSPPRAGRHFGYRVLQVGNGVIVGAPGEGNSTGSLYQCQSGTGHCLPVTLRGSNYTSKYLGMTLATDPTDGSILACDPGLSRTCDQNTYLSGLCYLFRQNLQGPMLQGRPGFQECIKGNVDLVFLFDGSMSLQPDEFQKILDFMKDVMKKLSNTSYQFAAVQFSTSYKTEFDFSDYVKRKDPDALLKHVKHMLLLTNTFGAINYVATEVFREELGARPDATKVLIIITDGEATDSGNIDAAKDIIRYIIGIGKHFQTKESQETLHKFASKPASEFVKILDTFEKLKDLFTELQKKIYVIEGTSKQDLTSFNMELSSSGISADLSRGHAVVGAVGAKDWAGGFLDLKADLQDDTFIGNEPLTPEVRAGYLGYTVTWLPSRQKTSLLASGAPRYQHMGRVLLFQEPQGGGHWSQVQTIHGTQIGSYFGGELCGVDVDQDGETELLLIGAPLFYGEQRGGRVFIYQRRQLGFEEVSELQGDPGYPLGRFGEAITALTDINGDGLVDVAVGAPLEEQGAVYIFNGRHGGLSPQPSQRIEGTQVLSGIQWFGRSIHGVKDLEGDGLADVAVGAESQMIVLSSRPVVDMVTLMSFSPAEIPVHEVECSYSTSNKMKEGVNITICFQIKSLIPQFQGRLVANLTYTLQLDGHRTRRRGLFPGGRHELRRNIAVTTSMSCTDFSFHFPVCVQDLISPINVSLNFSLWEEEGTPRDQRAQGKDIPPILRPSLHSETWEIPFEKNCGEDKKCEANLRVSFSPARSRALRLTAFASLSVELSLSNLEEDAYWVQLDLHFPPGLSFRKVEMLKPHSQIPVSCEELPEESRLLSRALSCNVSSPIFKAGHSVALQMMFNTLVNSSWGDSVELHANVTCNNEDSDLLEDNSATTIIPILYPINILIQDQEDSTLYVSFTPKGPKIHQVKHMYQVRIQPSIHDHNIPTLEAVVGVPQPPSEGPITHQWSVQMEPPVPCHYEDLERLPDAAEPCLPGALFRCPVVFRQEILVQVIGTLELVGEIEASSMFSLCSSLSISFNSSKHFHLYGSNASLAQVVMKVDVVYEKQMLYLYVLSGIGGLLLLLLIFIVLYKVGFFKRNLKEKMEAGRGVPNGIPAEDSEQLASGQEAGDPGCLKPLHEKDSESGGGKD
Sequence of LFA-1 (CD11a/CD18, αLβ2 integrin) (P05107 23-769): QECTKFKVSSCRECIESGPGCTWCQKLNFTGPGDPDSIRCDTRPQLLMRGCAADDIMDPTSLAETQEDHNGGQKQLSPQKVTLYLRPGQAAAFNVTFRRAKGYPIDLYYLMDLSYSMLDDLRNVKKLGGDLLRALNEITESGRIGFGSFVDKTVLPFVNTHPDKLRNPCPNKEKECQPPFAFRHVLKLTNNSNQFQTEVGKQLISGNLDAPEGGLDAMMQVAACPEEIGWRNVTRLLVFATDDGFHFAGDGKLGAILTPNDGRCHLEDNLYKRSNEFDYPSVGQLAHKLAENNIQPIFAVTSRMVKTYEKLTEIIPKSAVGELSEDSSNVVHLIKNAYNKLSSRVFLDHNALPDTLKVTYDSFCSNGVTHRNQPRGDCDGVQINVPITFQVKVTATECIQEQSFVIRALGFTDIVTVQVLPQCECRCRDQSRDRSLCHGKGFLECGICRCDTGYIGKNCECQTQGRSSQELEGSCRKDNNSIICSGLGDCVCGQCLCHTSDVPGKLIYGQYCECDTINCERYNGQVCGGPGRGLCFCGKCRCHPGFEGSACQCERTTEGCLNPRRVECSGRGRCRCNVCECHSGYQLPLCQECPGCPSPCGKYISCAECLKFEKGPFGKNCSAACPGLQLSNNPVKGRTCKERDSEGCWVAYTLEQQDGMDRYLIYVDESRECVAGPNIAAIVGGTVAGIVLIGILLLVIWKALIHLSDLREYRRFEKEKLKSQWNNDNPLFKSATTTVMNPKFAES

Broadly, the Kd is the equilibrium constant for the complex coming apart. `O=C(NCc1cccc(O)c1)c1cc(Cl)c(C(=O)N[C@@H](CNC(=O)c2cc(O)cc(O)c2)C(=O)O)c(Cl)c1` [XVA-143, (S)-2-[4-(3-hydroxybenzylcarbamoyl)-2,6-dichlorobenzoylamino]-3-(3,5-dihydroxybenzoylamino) propionic acid] displayed a Kd of 80 to 90 nM.
